According to PubChem BioAssay (NCI):
Where “and” joins values, the source holds several entries; their conditions need not be identical. Equal values may be shown once.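 Protocol summary: plate cells (96-well), add compound at 5 concentrations, incubate 48 h, interpolate endpoints linearly. GI50 = concentration required for 50% inhibition of growth. TGI: concentration producing complete growth inhibition.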

Assays:
Experiment in all cases: NCI-60 cell line screen, 48 h
[1] = tested on: SR leukemia
[2] = tested on: CCRF-CEM leukemia
[3] = tested on: SK-MEL-2 melanoma
[4] = tested on: SW-620 colon
[5] = tested on: COLO 205 colon
[6] = tested on: PC-3 prostate
[7] = tested on: NCI-H522 lung
[8] = tested on: SNB-19 CNS
[9] = tested on: RXF 393 renal
[10] = tested on: LOX IMVI melanoma

Compound `CCC(C)C(=O)OC1CCC=C2C=CC(C)C(CCC3CC(O)CC(=O)O3)C21` (stereo unspecified) has a TGI [1] of over 51 µM, a TGI [2] of over 100 µM and a TGI [3] of over 100 µM. It also gave a TGI [4] of over 100 µM, a TGI [5] of 32.4 µM and a TGI [6] of over 47.9 µM. The TGI [7] was 21 µM, the TGI [8] was over 100 µM and the TGI [9] was over 80.6 µM. It also gave a TGI [10] of over 100 µM.

Compound `Oc1ccc(/C=N/NC(=S)Nc2cccnc2)nc1` has a TGI [1] of 0.807 µM, a TGI [2] of 9.78 µM and a TGI [3] of over 100 µM. For the same compound, the TGI [4] was over 100 µM, the TGI [5] was over 100 µM and the TGI [6] was over 100 µM. For the same compound, the TGI [7] was 21.7 µM, the TGI [8] was over 100 µM and the TGI [9] was over 61.2 µM. For the same compound, the TGI [10] was over 100 µM.

Work on `NC(Cc1c[nH]c2cccc(F)c12)C(=O)O` (stereo unspecified) yielded a TGI [1] of over 4500 µM, a TGI [2] of over 4500 µM and a TGI [3] of over 4500 µM. For the same compound, the GI50 [4] was 47.7 µM and 279 µM, the TGI [4] was 1020 µM and the GI50 [5] was 43.6 µM and 302 µM. The TGI [5] was 944 µM, the TGI [6] was over 4500 µM and the GI50 [7] was 27.7 µM and 176 µM. The TGI [7] was 74.5 µM and 729 µM, the GI50 [8] was 1120 µM and the TGI [8] was over 4500 µM. The GI50 [9] was 1320 µM, the TGI [9] was over 4500 µM and the GI50 [10] was 51.6 µM and 211 µM. For the same compound, the TGI [10] was 982 µM.

With `CC(=N/NC(N)=S)/C(C)=N/NC(N)=S` the TGI [1] was over 100 µM, the TGI [2] was over 100 µM and the TGI [3] was over 100 µM. The TGI [4] was over 100 µM, the TGI [5] was over 100 µM and the TGI [6] was over 100 µM. It also gave a TGI [7] of over 100 µM, a TGI [8] of over 100 µM and a TGI [9] of over 100 µM. For the same compound, the TGI [10] was over 100 µM.

Compound `C/C(=N\NC(=S)N1CCN(c2ccccn2)CC1)c1cccc2cccnc12` has a TGI [1] of over 38.7 µM, a TGI [2] of over 42.8 µM and a TGI [3] of 8.56 µM. It also gave a TGI [4] of over 100 µM, a TGI [5] of over 46.1 µM and a TGI [6] of over 100 µM. For the same compound, the TGI [7] was 9.63 µM, the TGI [8] was over 100 µM and the TGI [9] was over 100 µM. For the same compound, the TGI [10] was over 100 µM.

In the case of `C/C=C(\C)C(=O)O[C@@H]1C=CC(=O)O[C@H]1CNC(=O)[C@H](C)O`, the GI50 [1] is reported as 6.78 µM, the TGI [1] is reported as 48.6 µM and the GI50 [2] is reported as 6.1 µM. For the same compound, the TGI [2] was 26.2 µM, the GI50 [3] was 20000 nM and the TGI [3] was 48.5 µM. The GI50 [4] was 10 µM, the TGI [4] was 25.4 µM and the GI50 [5] was 8.96 µM. It also gave a TGI [5] of 27.2 µM, a GI50 [6] of 27.3 µM and a TGI [6] of over 92.2 µM. For the same compound, the GI50 [7] was 13.1 µM, the TGI [7] was 30.5 µM and the GI50 [8] was 27 µM. It also gave a TGI [8] of over 74.8 µM, a GI50 [9] of 18.3 µM and a TGI [9] of 42.9 µM. It also gave a GI50 [10] of 15.9 µM and a TGI [10] of 31.3 µM.

`O=C1c2ccccc2C(=O)c2sc(Nc3ccc([N+](=O)[O-])cc3)nc21` was tested, and the TGI [1] was 7.97 µM, the TGI [2] was 5.37 µM and the TGI [3] was 34.1 µM. For the same compound, the TGI [4] was 8.48 µM, the TGI [5] was 19 µM and the TGI [6] was 19.9 µM. For the same compound, the TGI [7] was 6.35 µM, the TGI [8] was 25.7 µM and the TGI [9] was 9.71 µM. For the same compound, the TGI [10] was 4.66 µM.

`O=C(O)c1[nH]c2c([N+](=O)[O-])cc([N+](=O)[O-])cc2c1C(=O)O` showed a TGI [1] of over 100 µM, a TGI [2] of over 100 µM and a TGI [3] of over 100 µM. The TGI [4] was over 100 µM, the TGI [5] was over 100 µM and the TGI [6] was over 100 µM. The TGI [7] was over 100 µM, the TGI [8] was over 100 µM and the TGI [9] was over 100 µM. For the same compound, the TGI [10] was over 100 µM.

For `CC1(C)CN(CCNc2nccc(-c3c(-c4cccc(O)c4)nc4sccn34)n2)S(=O)(=O)N1`, the GI50 [1] was 3.34 µM, the TGI [1] was over 33.2 µM and the GI50 [2] was 7.25 µM. For the same compound, the TGI [2] was over 33.2 µM, the GI50 [3] was 1360 nM and the TGI [3] was 4.83 µM. The GI50 [4] was 15.7 µM, the TGI [4] was over 33.2 µM and the GI50 [5] was 0.448 µM. For the same compound, the TGI [5] was 7.25 µM, the GI50 [6] was 17.1 µM and the TGI [6] was over 33.2 µM. For the same compound, the GI50 [7] was 8.52 µM, the TGI [7] was over 33.2 µM and the GI50 [8] was over 33.2 µM. For the same compound, the TGI [8] was over 33.2 µM, the GI50 [9] was 3 µM and the TGI [9] was 21.6 µM. It also gave a GI50 [10] of 1.82 µM and a TGI [10] of over 33.2 µM.

`CCC(=C(c1ccc(OCCN2CCCC2)cc1)c1ccc(OCCN2CCCC2)cc1)c1ccc(Cl)cc1` was tested, and the GI50 [1] was 0.347 µM, the TGI [1] was 1.09 µM and the GI50 [2] was 0.601 µM. It also gave a TGI [2] of 1.58 µM, a GI50 [3] of 688 nM and a TGI [3] of 1.35 µM. The GI50 [4] was 0.554 µM, the TGI [4] was 1.09 µM and the GI50 [5] was 0.615 µM. For the same compound, the TGI [5] was 1.25 µM, the GI50 [6] was 0.569 µM and the TGI [6] was 1.2 µM. The GI50 [7] was 0.577 µM, the TGI [7] was 1.24 µM and the GI50 [8] was 0.624 µM. The TGI [8] was 1.19 µM, the GI50 [9] was 0.545 µM and the TGI [9] was 1.04 µM. The GI50 [10] was 0.54 µM and the TGI [10] was 1.02 µM.
